The target of one assay is Isocitrate lyase (Candida albicans, UniProt Q9P8Q7). Nature of the assay: Inhibition of candida albicans isocitrate lyase.
The test system of a further assay is Candida albicans. Nature of the assay: Antifungal activity against candida albicans ATCC 10231. Type of assay: functional, organism-based.
For another assay, the system named is Staphylococcus aureus. Nature of the assay: Antibacterial activity against Staphylococcus aureus ATCC 6538. The assay is classed as functional.
A further assay has as its system Bacillus subtilis. Nature of the assay: Antibacterial activity against Bacillus subtilis ATCC 6633. The assay is classed as functional.
Another assay has as its system Micrococcus luteus. Nature of the assay: Antibacterial activity against Micrococcus luteus IFC12708. Type of assay: functional.
For a further assay, the system named is Proteus vulgaris. Nature of the assay: Antibacterial activity against Proteus vulgaris ATCC 3851. Type of assay: functional.
The subject of another assay is Salmonella typhimurium. As to the kind of experiment: Antibacterial activity against Salmonella Typhimurium ATCC 14028. The assay is classed as functional, Salmonella enterica subsp. enterica serovar Typhimurium. Conditions: Salmonella enterica.
A further assay concerns Escherichia coli. As to the kind of experiment: Antibacterial activity against Escherichia coli ATCC 11775. The assay is classed as functional.

Values after ≈ are worked out from the molar mass of the structure shown.

Isocitrate lyase, sequence (Q9P8Q7 whole entry): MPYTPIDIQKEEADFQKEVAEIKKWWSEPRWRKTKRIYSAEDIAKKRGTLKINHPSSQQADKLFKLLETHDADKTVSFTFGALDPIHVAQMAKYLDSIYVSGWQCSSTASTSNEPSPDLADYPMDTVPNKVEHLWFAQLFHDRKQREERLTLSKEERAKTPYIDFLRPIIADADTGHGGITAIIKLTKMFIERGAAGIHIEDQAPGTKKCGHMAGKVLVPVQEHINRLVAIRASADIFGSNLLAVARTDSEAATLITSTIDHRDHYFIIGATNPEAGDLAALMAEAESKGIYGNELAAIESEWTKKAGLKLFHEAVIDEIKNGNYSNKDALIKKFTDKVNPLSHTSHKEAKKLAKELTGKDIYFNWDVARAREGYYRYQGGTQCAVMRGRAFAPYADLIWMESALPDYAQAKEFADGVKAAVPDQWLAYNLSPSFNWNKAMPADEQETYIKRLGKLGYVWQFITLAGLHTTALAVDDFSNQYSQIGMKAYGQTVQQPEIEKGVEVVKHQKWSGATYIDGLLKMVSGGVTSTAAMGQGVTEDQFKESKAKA

Usually IC50 stands for the concentration at which inhibition is half-maximal. A higher IC50 goes with lower potency. The MIC is the lowest concentration found to suppress growth. Regarding `CC1=CC[C@H]2C(C)(C)CCC[C@]2(C)[C@H]1C[C@@H](OS(=O)(=O)O)[C@H](C)CCC/C(C)=C/Cc1cc(O)ccc1O.CN(C)C(=N)N`, the IC50 against Isocitrate lyase and in the assay with Candida albicans was 158 µM in each case. Further, the MIC against Staphylococcus aureus was 50 µg/mL; in the assay with Bacillus subtilis it was 6.25 µg/mL; in the assay with Micrococcus luteus, greater than 100 µg/mL; in the assay with Proteus vulgaris, 12.5 µg/mL; against Salmonella typhimurium, 50 µg/mL; against Escherichia coli it was greater than 100 µg/mL.
Turning to `O=C(O)CC[N+](=O)[O-]`, the values for the IC50 at Isocitrate lyase and in the assay on Candida albicans were 50.7 µM and 845 µM, respectively.
Regarding `CN(C)C(=N)N.C[C@@H]1CCC2=C(CCCC2(C)C)[C@@]1(C)CC[C@H](CCCc1ccoc1)COS(=O)(=O)O`, the IC50 on Isocitrate lyase was found to be 33.8 µM; with Candida albicans, 186 µM. For the same compound, the MIC against Staphylococcus aureus is 50 µg/mL; in the assay with Bacillus subtilis, 6.25 µg/mL; against Micrococcus luteus it was 50 µg/mL; against Proteus vulgaris, 12.5 µg/mL; against Salmonella typhimurium it was greater than 100 µg/mL; against Escherichia coli, greater than 100 µg/mL.
For `CC1=CCC[C@@H](C)[C@]1(C)CC/C(C)=C/CCC(CCCc1ccoc1)COS(=O)(=O)O.CN(C)C(=N)N` (stereo not given in full), the IC50 at Isocitrate lyase and with Candida albicans was 186 µM in each case. Also, the MIC against Staphylococcus aureus is greater than 100 µg/mL; with Bacillus subtilis, 6.25 µg/mL; against Micrococcus luteus it was greater than 100 µg/mL; against Proteus vulgaris, 25 µg/mL; in the assay on Salmonella typhimurium, greater than 100 µg/mL; in the assay with Escherichia coli, greater than 100 µg/mL.
For `CC1=CC[C@H]2C(C)(C)CCC[C@]2(C)[C@H]1C/C=C(\C)CCC/C(C)=C/Cc1cc(O)ccc1O`, the IC50 was 76.8 µM against Isocitrate lyase and 222 µM with Candida albicans. For the same compound, the MIC in the assay on Staphylococcus aureus was 100 µg/mL (≈ 222 µM); with Bacillus subtilis it was 3.25 µg/mL (≈ 7.21 µM); in the assay with Micrococcus luteus, 25 µg/mL (≈ 55.5 µM); in the assay on Proteus vulgaris it was 6.25 µg/mL (≈ 13.9 µM); in the assay on Salmonella typhimurium, 25 µg/mL (≈ 55.5 µM); against Escherichia coli, greater than 100 µg/mL.
With `C=C1CC[C@H]2C(C)(C)CCC[C@]2(C)[C@H]1C[C@@H](OS(=O)(=O)[O-])[C@H](C)CCC/C(C)=C/Cc1cc(O)ccc1O.[Na+]`, the IC50 against Isocitrate lyase was found to be 71 µM; with Candida albicans, 131 µM. Further, the MIC in the assay with Staphylococcus aureus is 25 µg/mL; against Bacillus subtilis, 1.56 µg/mL; with Micrococcus luteus, 50 µg/mL; with Proteus vulgaris it was 6.25 µg/mL; in the assay on Salmonella typhimurium, 50 µg/mL; in the assay on Escherichia coli it was greater than 100 µg/mL.
As for `C=C1CCC[C@@H]2[C@@](C)(CC[C@H](CCCc3ccoc3)COS(=O)(=O)O)[C@H](C)CC[C@]12C.CN(C)C(=N)N`, the IC50 is 31.3 µM at Isocitrate lyase and 186 µM in the assay with Candida albicans. Further, the MIC with Staphylococcus aureus is 50 µg/mL; in the assay with Bacillus subtilis it was 12.5 µg/mL; with Micrococcus luteus, 25 µg/mL; in the assay with Proteus vulgaris it was 6.25 µg/mL; in the assay on Salmonella typhimurium, 25 µg/mL; against Escherichia coli, greater than 100 µg/mL.
Turning to `C[C@@H]1[C@H](O)[C@@H](C)/C=C/C=C/C=C/C=C/C=C/C=C/C=C/[C@H](O[C@@H]2O[C@H](C)[C@@H](O)[C@H](N)[C@@H]2O)C[C@@H]2O[C@](O)(C[C@@H](O)C[C@@H](O)[C@H](O)CC[C@@H](O)C[C@@H](O)CC(=O)O[C@H]1C)C[C@H](O)[C@H]2C(=O)O` [AMPHOTERICIN B], the IC50 in the assay on Candida albicans was 1.7 µM.
Turning to `CC1(C)S[C@@H]2[C@H](NC(=O)[C@H](N)c3ccccc3)C(=O)N2[C@H]1C(=O)O` [AMPICILLIN], the MIC was found to be 3.12 µg/mL (≈ 8.93 µM) in the assay on Staphylococcus aureus; 1.56 µg/mL (≈ 4.46 µM) with Bacillus subtilis; 1.56 µg/mL (≈ 4.46 µM) against Micrococcus luteus; 1.56 µg/mL (≈ 4.46 µM) against Proteus vulgaris; 1.56 µg/mL (≈ 4.46 µM) against Salmonella typhimurium; 6.25 µg/mL (≈ 17.9 µM) in the assay on Escherichia coli.
Regarding `CC1=CC[C@H]2C(C)(C)CCC[C@]2(C)[C@H]1C[C@@H](OS(=O)(=O)[O-])[C@H](C)CCC/C(C)=C/Cc1cc(O)ccc1O.[Na+]` [HALISULFATE 1], the IC50 was 70.2 µM at Isocitrate lyase and 131 µM with Candida albicans. Moreover, the MIC was 25 µg/mL with Staphylococcus aureus; 1.56 µg/mL against Bacillus subtilis; 50 µg/mL against Micrococcus luteus; 6.25 µg/mL against Proteus vulgaris; 50 µg/mL in the assay on Salmonella typhimurium; greater than 100 µg/mL in the assay with Escherichia coli.

The values above are taken from ChEMBL document CHEMBL1142476, “Inhibition of Candida albicans isocitrate lyase activity by sesterterpene sulfates from the tropical sponge Dysidea sp” (Bioorg Med Chem Lett, 2008).
